Results taken from patent US10940139B2, “Compounds that interact with the Ras superfamily for the treatment of cancers, inflammatory diseases, rasopathies, and fibrotic disease” (Shy Therapeutics LLC, priority 2017, dated 2021).

Assays:
Experiment in all cases: Ras GTP binding domain inhibition assay (labeled GTP)
[1] = target: KRas G12D/Q61H double mutant (Homo sapiens (Human), UniProt P01116, G12D/Q61H); settings: 20 μM compound; read-out: % Inhibition at 20 μM KRas G12D Q61H
How it was run: (§1)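 Inhibition of labeled GTP binding is measured on immobilized His-KRas protein in Tris buffer pH 7.5 with 1 mM MgCl2 and 1 mM DTT.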

[2] = target: KRas G12C/Q61H double mutant (Homo sapiens (Human), UniProt P01116, G12C/Q61H); settings: 20 μM compound; read-out: % Inhibition at 20 μM KRas G12C Q61H
KRas G12C/Q61H double mutant, sequence (P01116-2 other isoform, or with tags, fused parts or gaps G12C/Q61H): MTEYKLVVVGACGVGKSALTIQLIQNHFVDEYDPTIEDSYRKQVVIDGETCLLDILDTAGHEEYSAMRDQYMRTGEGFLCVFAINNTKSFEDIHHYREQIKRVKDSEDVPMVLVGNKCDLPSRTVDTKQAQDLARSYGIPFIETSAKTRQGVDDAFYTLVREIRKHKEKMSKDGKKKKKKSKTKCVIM
How it was run: as §1

KRas G12C mutant = KRas G12C mutant (Homo sapiens (Human), UniProt P01116, G12C); settings: 20 μM compound; read-out: % Inhibition at 20 μM KRas G12C
KRas G12C mutant, sequence (P01116-2 other isoform, or with tags, fused parts or gaps G12C): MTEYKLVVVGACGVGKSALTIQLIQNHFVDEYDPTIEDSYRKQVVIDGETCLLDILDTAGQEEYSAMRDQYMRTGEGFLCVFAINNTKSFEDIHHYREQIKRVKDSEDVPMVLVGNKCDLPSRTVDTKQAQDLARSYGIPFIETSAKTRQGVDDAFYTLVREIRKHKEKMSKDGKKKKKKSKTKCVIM
How it was run: as §1

KRas Q61H mutant = KRas Q61H mutant (Homo sapiens (Human), UniProt P01116, Q61H); settings: 20 μM compound; read-out: % Inhibition at 20 μM KRas Q61H
KRas Q61H mutant, sequence (P01116-2 other isoform, or with tags, fused parts or gaps Q61H): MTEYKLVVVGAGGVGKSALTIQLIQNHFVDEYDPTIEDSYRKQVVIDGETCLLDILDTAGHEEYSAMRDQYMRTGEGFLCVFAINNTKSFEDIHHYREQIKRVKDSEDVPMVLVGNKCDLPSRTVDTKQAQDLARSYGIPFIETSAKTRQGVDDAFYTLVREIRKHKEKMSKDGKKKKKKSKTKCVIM
How it was run: as §1

KRas wild type = KRas wild type (Homo sapiens (Human), UniProt P01116); settings: 20 μM compound; read-out: % Inhibition at 20 μM KRas wild type
KRas wild type, sequence (P01116-2 other isoform, or with tags, fused parts or gaps): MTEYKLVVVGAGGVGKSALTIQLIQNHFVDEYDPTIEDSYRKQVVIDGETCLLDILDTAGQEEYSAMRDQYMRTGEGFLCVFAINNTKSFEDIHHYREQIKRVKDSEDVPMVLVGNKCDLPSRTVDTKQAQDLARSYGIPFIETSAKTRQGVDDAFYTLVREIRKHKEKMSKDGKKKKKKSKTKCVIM
How it was run: as §1

KRas G12D mutant protein = KRas G12D mutant protein (Homo sapiens (Human), UniProt P01116, G12D); settings: 20 μM compound; read-out: % Inhibition at 20 μM KRas G12D
KRas G12D mutant protein, sequence (P01116-2 other isoform, or with tags, fused parts or gaps G12D): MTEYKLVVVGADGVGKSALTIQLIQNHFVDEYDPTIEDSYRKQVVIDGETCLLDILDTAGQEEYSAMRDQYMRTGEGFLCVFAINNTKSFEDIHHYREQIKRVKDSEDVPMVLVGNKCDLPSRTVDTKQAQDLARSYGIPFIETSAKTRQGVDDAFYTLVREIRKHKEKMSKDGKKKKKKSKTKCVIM

KRas G12D/Q61H double mutant, sequence (P01116-2 other isoform, or with tags, fused parts or gaps G12D/Q61H): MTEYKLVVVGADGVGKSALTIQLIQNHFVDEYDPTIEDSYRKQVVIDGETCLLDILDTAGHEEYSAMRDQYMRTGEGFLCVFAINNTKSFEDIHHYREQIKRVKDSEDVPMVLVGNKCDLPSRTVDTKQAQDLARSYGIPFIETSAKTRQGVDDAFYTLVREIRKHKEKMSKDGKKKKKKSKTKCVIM

Row | Structure (SMILES) | inhibition at 20 µM [1] | inhibition at 20 µM [2] | inhibition at 20 µM (KRas G12C mutant) | inhibition at 20 µM (KRas Q61H mutant) | inhibition at 20 µM (KRas wild type) | inhibition at 20 µM (KRas G12D mutant protein)
1 | O=C(c1csc2c(O)nc(-c3ccccn3)nc12)N1CC2CC1CN2c1ccccc1 (stereo not drawn) [drawing 2838] | 76 to 100% | 76 to 100% | 25 to 50% | 76 to 100% | 25 to 50% | 51 to 75%
2 | O=C(c1csc2c(O)nc(-c3ccccn3)nc12)N1CCC(c2ccncc2)C1 (stereo not drawn) [drawing 2839] | 51 to 75% | 51 to 75% | 51 to 75% | 51 to 75% | 51 to 75% | 51 to 75%
3 | O=C(c1csc2c(O)nc(-c3ccccn3)nc12)N1CCC(c2cccc(O)c2)C1 (stereo not drawn) [drawing 2840] | 76 to 100% | 76 to 100% | 51 to 75% | 76 to 100% | 51 to 75% | 76 to 100%
4 | O=C(c1cc2nc(-c3ccccn3)nc(O)c2s1)N1CCN(c2ccccc2)CC1 [drawing 2841] | 51 to 75% | 51 to 75% | 51 to 75% | 51 to 75% | 51 to 75% | 51 to 75%
5 | CN(C)Cc1ccc(-c2csc3c(O)nc(-c4ccccn4)nc23)cc1F [drawing 2845] | 76 to 100% | 76 to 100% | 25 to 50% | 76 to 100% | 51 to 75% | 76 to 100%
6 | COCc1ccc(-c2csc3c(O)nc(-c4ccccn4)nc23)cc1F [drawing 2846] | 51 to 75% | 51 to 75% | 51 to 75% | 51 to 75% | 25 to 50% | 51 to 75%
7 | Oc1nc(-c2ccccn2)nc2c(-c3cc(Cl)cc(Cl)c3)csc12 [drawing 2848] | 25 to 50% | 1 to 25% | 25 to 50% | 25 to 50% | 1 to 25% | 25 to 50%
8 | Oc1nc(-c2ccccn2)nc2c(-c3cccc4c3OCO4)csc12 [drawing 2849] | 51 to 75% | 25 to 50% | 25 to 50% | 51 to 75% | 25 to 50% | 25 to 50%
9 | O=C(O)c1cc2nc(-c3ccccn3)nc(O)c2s1 [drawing 2850] | 51 to 75% | 51 to 75% | 51 to 75% | 51 to 75% | 51 to 75% | 51 to 75%
10 | Oc1nc(-c2ccccn2)nc2sc3c(c12)CCNC3 [drawing 2851] | 51 to 75% | 51 to 75% | 25 to 50% | 51 to 75% | 51 to 75% | 76 to 100%
11 | Oc1nc(-c2ccccn2)nc2sc3c(c12)CCCNC3 [drawing 2852] | 25 to 50% | 25 to 50% | 51 to 75% | 25 to 50% | 25 to 50% | 51 to 75%
12 | Cc1cnc(-c2ccccn2)nc1NC(=O)Cc1ccc2cnccc2c1 [drawing 2856] | 51 to 75% | 51 to 75% | 25 to 50% | 51 to 75% | 51 to 75% | 51 to 75%
13 | O=C(COCc1ccnc(O)c1)Nc1nc(-c2ccccn2)nc2sccc12 [drawing 2857] | 51 to 75% | 51 to 75% | 25 to 50% | 51 to 75% | 25 to 50% | 25 to 50%
14 | O=C(c1csc2c(O)nc(-c3ccccn3)nc12)N1CCNC(c2cn[nH]c2)C1 (stereo not drawn) [drawing 2858] | 51 to 75% | 51 to 75% | 25 to 50% | 76 to 100% | 25 to 50% | 25 to 50%
15 | Nc1nc(-c2ccccn2)nc2c(-c3ccccc3)csc12 [drawing 2859] | 25 to 50% | 51 to 75% | 1 to 25% | 25 to 50% | 25 to 50% | 25 to 50%
